Columns and labels:
Danio rerio embryo [1] = system: Danio rerio embryo
Method: (§1)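 Zebrafish embryos (UFZ-OBI strain) were exposed from 2 hpf for 48 h (2 dpf) or 96 h (4 dpf) at 28 °C; spontaneous tail coiling was scored at 25 hpf. Morphological features from automated image analysis (FishInspector), heart rate and locomotor response were fitted with drc models. Quantal endpoints were dichotomised at 2.5 SD from controls and fitted with a log-logistic model; heart rate, pigmentation and STC were normalised to the replicate control mean. Betamethasone was tested as betamethasone dipropionate, diflorasone as diflorasone diacetate.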

Danio rerio embryo [2] = conditions: exposure time: 4 dpf
Method: as §1

Danio rerio embryo [3] = experiment: EC50 Curvature_Increase
Method: as §1

Danio rerio embryo [4] = experiment: EC50 Body length_Decrease
Method: as §1

Danio rerio embryo [5] = experiment: EC50 Bladder size_Decrease; conditions: exposure time: 4 dpf
Method: as §1

Danio rerio embryo [6] = experiment: EC50 Pericard size_Increase
Method: as §1

Danio rerio embryo [7] = experiment: EC50 Yolk sac size_Increase
Method: as §1

Danio rerio embryo [8] = experiment: EC50 Eye-jaw distance_Decrease; conditions: exposure time: 4 dpf
Method: as §1

Danio rerio embryo [9] = experiment: EC50 Otolith-eye distance_Decrease; conditions: exposure time: 4 dpf
Method: as §1

Danio rerio embryo [10] = experiment: EC10 LMR dark; higher = less potent; conditions: exposure time: 4 dpf
Method: as §1

Danio rerio embryo [11] = experiment: EC20 LMR dark; higher = less potent; conditions: exposure time: 4 dpf
Method: as §1

Danio rerio embryo [12] = experiment: EC20 Any effect; higher = less potent
Method: as §1

Danio rerio embryo [13] = experiment: EC10 Any effect; higher = less potent
Method: as §1

Danio rerio embryo [14] = experiment: EC10 Curvature_Increase; higher = less potent
Method: as §1

Danio rerio embryo [15] = experiment: EC20 Curvature_Increase; higher = less potent
Method: as §1

Danio rerio embryo [16] = experiment: EC20 Body length_Decrease; higher = less potent
Method: as §1

Danio rerio embryo [17] = experiment: EC10 Body length_Decrease; higher = less potent
Method: as §1

Danio rerio embryo [18] = experiment: EC10 Bladder size_Decrease; higher = less potent; conditions: exposure time: 4 dpf
Method: as §1

Danio rerio embryo [19] = experiment: EC20 Bladder size_Decrease; higher = less potent; conditions: exposure time: 4 dpf
Method: as §1

Danio rerio embryo [20] = experiment: EC20 Yolk sac size_Increase; higher = less potent
Method: as §1

Danio rerio embryo [21] = experiment: EC20 Pericard size_Increase; higher = less potent
Method: as §1

Danio rerio embryo [22] = experiment: EC10 Yolk sac size_Increase; higher = less potent
Method: as §1

Danio rerio embryo [23] = experiment: EC10 Pericard size_Increase; higher = less potent
Method: as §1

Danio rerio embryo [24] = experiment: EC20 Eye-jaw distance_Decrease; higher = less potent; conditions: exposure time: 4 dpf
Method: as §1

Danio rerio embryo [25] = experiment: EC10 Eye-jaw distance_Decrease; higher = less potent; conditions: exposure time: 4 dpf
Method: as §1

Danio rerio embryo [26] = experiment: EC20 Otolith-eye distance_Decrease; higher = less potent; conditions: exposure time: 4 dpf
Method: as §1

Danio rerio embryo [27] = experiment: EC10 Otolith-eye distance_Decrease; higher = less potent; conditions: exposure time: 4 dpf
Method: as §1

Danio rerio embryo [28] = experiment: spontaneous tail coiling frequency (coils/min/embryo); higher = more spontaneous movement; conditions: 25 hpf
Method: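 Spontaneous tail coilings of zebrafish embryos exposed from 2 hpf were recorded at 24-25 hpf in 1-min videos and detected by a KNIME workflow from grey-value variance. Betamethasone was tested as the dipropionate, diflorasone as the diacetate.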

CCCCC(O)(Cn1cncn1)c1ccc(Cl)cc1Cl (stereo not given) [Hexaconazole]
Conditions | EC10 Any effect [µM] | EC10 Body length Decrease [µM] | EC10 Curvature Increase [µM] | EC10 Pericard size Increase [µM] | EC10 Yolk sac size Increase [µM] | EC20 Any effect [µM] | EC20 Body length Decrease [µM] | EC20 Curvature Increase [µM] | EC20 Pericard size Increase [µM] | EC20 Yolk sac size Increase [µM] | EC50 Any effect [µM] | EC50 Body length Decrease [µM] | EC50 Curvature Increase [µM] | EC50 Pericard size Increase [µM] | EC50 STC bell shape [µM] | EC50 Yolk sac size Increase [µM] | spontaneous tail coiling frequency
Danio rerio embryo [1], exposure time: 2 dpf | – | – | – | – | – | – | – | – | – | – | 19.5 | – | – | – | – | – | –
Danio rerio embryo [1], exposure time: 4 dpf | – | – | – | – | – | – | – | – | – | – | 10.8 | – | – | – | – | – | –
Danio rerio embryo [1], exposure time: 25 h | – | – | – | – | – | – | – | – | – | – | – | – | – | – | 23.4 | – | –
Danio rerio embryo [3], exposure time: 2 dpf | – | – | – | – | – | – | – | – | – | – | – | – | 21.2 | – | – | – | –
Danio rerio embryo [3], exposure time: 4 dpf | – | – | – | – | – | – | – | – | – | – | – | – | 17.5 | – | – | – | –
Danio rerio embryo [4], exposure time: 2 dpf | – | – | – | – | – | – | – | – | – | – | – | 33.4 | – | – | – | – | –
Danio rerio embryo [4], exposure time: 4 dpf | – | – | – | – | – | – | – | – | – | – | – | 16.8 | – | – | – | – | –
Danio rerio embryo [6], exposure time: 2 dpf | – | – | – | – | – | – | – | – | – | – | – | – | – | 31.5 | – | – | –
Danio rerio embryo [6], exposure time: 4 dpf | – | – | – | – | – | – | – | – | – | – | – | – | – | 20.4 | – | – | –
Danio rerio embryo [7], exposure time: 2 dpf | – | – | – | – | – | – | – | – | – | – | – | – | – | – | – | 51.2 | –
Danio rerio embryo [7], exposure time: 4 dpf | – | – | – | – | – | – | – | – | – | – | – | – | – | – | – | 9.95 | –
Danio rerio embryo [12], exposure time: 2 dpf | – | – | – | – | – | 15.7 | – | – | – | – | – | – | – | – | – | – | –
Danio rerio embryo [12], exposure time: 4 dpf | – | – | – | – | – | 9.17 | – | – | – | – | – | – | – | – | – | – | –
Danio rerio embryo [13], exposure time: 2 dpf | 13.8 | – | – | – | – | – | – | – | – | – | – | – | – | – | – | – | –
Danio rerio embryo [13], exposure time: 4 dpf | 8.34 | – | – | – | – | – | – | – | – | – | – | – | – | – | – | – | –
Danio rerio embryo [14], exposure time: 2 dpf | – | – | 17.5 | – | – | – | – | – | – | – | – | – | – | – | – | – | –
Danio rerio embryo [14], exposure time: 4 dpf | – | – | 11.8 | – | – | – | – | – | – | – | – | – | – | – | – | – | –
Danio rerio embryo [15], exposure time: 2 dpf | – | – | – | – | – | – | – | 18.8 | – | – | – | – | – | – | – | – | –
Danio rerio embryo [15], exposure time: 4 dpf | – | – | – | – | – | – | – | 13.7 | – | – | – | – | – | – | – | – | –
Danio rerio embryo [16], exposure time: 2 dpf | – | – | – | – | – | – | 23.5 | – | – | – | – | – | – | – | – | – | –
Danio rerio embryo [16], exposure time: 4 dpf | – | – | – | – | – | – | 13.7 | – | – | – | – | – | – | – | – | – | –
Danio rerio embryo [17], exposure time: 2 dpf | – | 19.2 | – | – | – | – | – | – | – | – | – | – | – | – | – | – | –
Danio rerio embryo [17], exposure time: 4 dpf | – | 12.2 | – | – | – | – | – | – | – | – | – | – | – | – | – | – | –
Danio rerio embryo [20], exposure time: 2 dpf | – | – | – | – | – | – | – | – | – | 47.2 | – | – | – | – | – | – | –
Danio rerio embryo [20], exposure time: 4 dpf | – | – | – | – | – | – | – | – | – | 6.81 | – | – | – | – | – | – | –
Danio rerio embryo [21], exposure time: 2 dpf | – | – | – | – | – | – | – | – | 17.9 | – | – | – | – | – | – | – | –
Danio rerio embryo [21], exposure time: 4 dpf | – | – | – | – | – | – | – | – | 16.9 | – | – | – | – | – | – | – | –
Danio rerio embryo [22], exposure time: 2 dpf | – | – | – | – | 45 | – | – | – | – | – | – | – | – | – | – | – | –
Danio rerio embryo [22], exposure time: 4 dpf | – | – | – | – | 5.45 | – | – | – | – | – | – | – | – | – | – | – | –
Danio rerio embryo [23], exposure time: 2 dpf | – | – | – | 12.8 | – | – | – | – | – | – | – | – | – | – | – | – | –
Danio rerio embryo [23], exposure time: 4 dpf | – | – | – | 15.2 | – | – | – | – | – | – | – | – | – | – | – | – | –
Danio rerio embryo [28], 5 µM | – | – | – | – | – | – | – | – | – | – | – | – | – | – | – | – | 10.3
Danio rerio embryo [28], 9.9 µM | – | – | – | – | – | – | – | – | – | – | – | – | – | – | – | – | 9.83
Danio rerio embryo [28], 13.3 µM | – | – | – | – | – | – | – | – | – | – | – | – | – | – | – | – | 9.46
Danio rerio embryo [28], 19.9 µM | – | – | – | – | – | – | – | – | – | – | – | – | – | – | – | – | 9.25
Danio rerio embryo [28], 26.5 µM | – | – | – | – | – | – | – | – | – | – | – | – | – | – | – | – | 1.62
Danio rerio embryo [28], 53 µM | – | – | – | – | – | – | – | – | – | – | – | – | – | – | – | – | 0
Danio rerio embryo [28], 79.6 µM | – | – | – | – | – | – | – | – | – | – | – | – | – | – | – | – | 0

Conditions | EC10 Bladder size Decrease [µM] | EC10 Eye-jaw distance Decrease [µM] | EC10 LMR dark [µM] | EC10 Otolith-eye distance Decrease [µM] | EC20 Bladder size Decrease [µM] | EC20 Eye-jaw distance Decrease [µM] | EC20 LMR dark [µM] | EC20 Otolith-eye distance Decrease [µM] | EC50 Bladder size Decrease [µM] | EC50 Eye-jaw distance Decrease [µM] | EC50 LMR dark [µM] | EC50 Otolith-eye distance Decrease [µM]
Danio rerio embryo [2] | – | – | – | – | – | – | – | – | – | – | 4.83 | –
Danio rerio embryo [5] | – | – | – | – | – | – | – | – | 10.3 | – | – | –
Danio rerio embryo [8] | – | – | – | – | – | – | – | – | – | 13.1 | – | –
Danio rerio embryo [9] | – | – | – | – | – | – | – | – | – | – | – | 19.8
Danio rerio embryo [10] | – | – | 3.21 | – | – | – | – | – | – | – | – | –
Danio rerio embryo [11] | – | – | – | – | – | – | 3.68 | – | – | – | – | –
Danio rerio embryo [18] | 6.28 | – | – | – | – | – | – | – | – | – | – | –
Danio rerio embryo [19] | – | – | – | – | 7.52 | – | – | – | – | – | – | –
Danio rerio embryo [24] | – | – | – | – | – | 10.5 | – | – | – | – | – | –
Danio rerio embryo [25] | – | 9.21 | – | – | – | – | – | – | – | – | – | –
Danio rerio embryo [26] | – | – | – | – | – | – | – | 19.7 | – | – | – | –
Danio rerio embryo [27] | – | – | – | 19.6 | – | – | – | – | – | – | – | –
